Test results taken from PMC10135567, “New Indole-3-Propionic Acid and 5-Methoxy-Indole Carboxylic Acid Derived Hydrazone Hybrids as Multifunctional Neuroprotectors” (Antioxidants, 2023).

How the values were obtained:
[1] = MTT cell viability assay (cytotoxicity), SH-SY5Y; conditions: human, SH-SY5Y neuroblastoma cells
Description: Neuroblastoma cell line SH-SY5Y (94030304) was acquired from the European Collection of Cell Cultures (ECACC, Salisbury, UK). Cells were cultured in a medium prepared with RPMI basic media supplemented with 10% heat-inactivated FBS (fetal bovine serum), 2 mM L-glutamine, 1% antibiotics (penicillin/streptomycin), and incubated at 37 °C in a humidified atmosphere containing 5% of CO2. The culture’s medium was replaced at a time interval of 2–3 days.
(§1) Cell viability was assessed via the mitochondrial reductase-dependent reaction of (3-(4,5-dimethylthiazol-2-yl)- 2,5-diphenyl tetrazolium bromide (MTT, cat. no. 475989, Calbiochem, Merck KGaA, Darmstadt, Germany). The SH-SY5Y and bEnd3 cell lines were seeded in 96-well plates at a density of 0.7 × 10^4 (bEnd3) or 2 × 10^4 (SH-SY5Y) cells/well and allowed to adhere for 24 h at 37 °C, 5% CO2. Then, the cells were incubated with the compounds (1–500 μM) for a preset time (24 h). For the solvent, the control cells were treated with DMSO corresponding to the highest concentration of DMSO in the samples (0.5% DMSO) in order to exclude its cytotoxic effect on the cells. For each concentration, a set of at least 6 wells were used. After incubation, the solution from each well was exchanged with fresh culture medium (100 µL/well), containing the MTT reagent (0.5 mg/mL) and incubated for 3 h at 37 °C in a humidified atmosphere and 5% CO2. The obtained formazan crystals were dissolved in 100 µL/well of 5% formic acid in propan-2-ol solution (or DMSO). The absorbance was measured at 570 nm via multiplate reader Tecan Infinite F200 PRO (Tecan Trading AG., Männedorf, Switzerland) or Synergy 2 (BioTek Instruments, Inc., Highland Park, Winooski, VT, USA).
(§2) Both the SH-SY5Y and bEnd3 cells were treated with the test compounds in a concentration range from 1 to 500 µM for 24 h.

[2] = test system: isolated rat-brain synaptosomes; test: Synaptosomal viability (MTT), substances administered alone; conditions: 100 µM
Description: Preparation of the synaptosomes was carried out by multiple centrifugations using the Percoll gradient. Homogenization of the brains was performed in 10 volumes of cold buffer 1, which contained 5 mM HEPES and 0.32 M sucrose (pH = 7.4), followed by centrifugation at different speeds. For preparation of the gradient, the synaptosomes were isolated by Percoll reagent. Synaptosomes were resuspended and incubated in buffer 2, which contained 290 mM NaCl, 0.95 mM MgCl2x6H2O, 10 mM KCl, 2.4 mM CaCl2xH2O, 2.1 mM NaH2PO4, 44 mM HEPES, and 13 mM D-glucose. Incubations were performed in a 5% CO2 + 95% O2 atmosphere. The method of Lowry et al., using bovine serum albumin as a standard content, was applied for determination of synaptosomal protein [51].
Synaptosomal viability was monitored based on a (3-(4,5)-dimethylthiazol-2-yl)-2,5-diphenyl tetrazolium bromide) assay. After incubation with the compounds, synaptosomes were treated with 0.5 mg/mL solution of (3-(4,5)-dimethylthiazol-2-yl)-2,5-diphenyl tetrazolium bromide) for 10 min at […]. Then, the synaptosomes were centrifuged twice at 15,000× g for 1 min. The resulting formazan crystals were dissolved in DMSO (dimethyl sulfoxide), and the extinction was determined by spectrophotometric measurements at 580–660 nm. […]

[3] = test system: isolated rat-brain synaptosomes; test: 6-OHDA-induced neurotoxicity in isolated rat synaptosomes, synaptosomal viability; format: cell-based; conditions: Rattus norvegicus; 10 µM pre-incubation 30 min, then 150 µM 6-OHDA 1 h; read-out: synaptosomal viability (SV) preserved, as compared to 6-OHDA
Description: (§3) This neurotoxicity model was based on the metabolism and auto-oxidation of 6-hydroxy dopamine responsible for the reactive oxygen species and quinones generation, ultimately leading to neurotoxicity and neurodegeneration. The experiment was performed by pre-incubation of the synaptosomes with 10 µM of the compounds for 30 min, followed by the addition of 150 µM 6-hydroxy dopamine for induction of neurotoxicity. After 1 h, they were centrifuged twice for 1 min at 15,000 × g. After the second wash, the precipitates were resolved with buffer B and glucose.

[4] = test system: isolated rat-brain synaptosomes; test: 6-OHDA-induced neurotoxicity in isolated rat synaptosomes, GSH level; format: cell-based; conditions: 10 µM pre-incubation 30 min, then 150 µM 6-OHDA 1 h
Description: as §3

[5] = Fe(II)-induced lipid peroxidation assay (LP assay, TBARS); format: biochemical; conditions: 90 µM, lecithin 1 mg/mL, 0.1 mM FeCl2; lower = stronger antioxidant
Description: (§4) The lipid peroxidation assay and a modification of the deoxyribose-degradation assay were used. Two types of measurement compositions in phosphate buffer (PB–K2HPO4/KH2PO4, pH 7.4) were prepared for both tests: (i) samples, containing the biologically relevant molecules (lecithin emulsion or deoxyribose), iron, and the tested hydrazones at the concentrations indicated below the figures; and (ii) controls, in which the tested hydrazones were omitted. The data for the sample activity were presented as a percentage of the control measurement.
The thiobarbituric-acid reactive-substance colorimetric test was performed in a model system of Fe(II)-induced lipid peroxidation as an emulsion prepared from egg yolk phospholipids. Each sample contained 1 mg/mL of lecithin. LP was initiated using 0.1 mM FeCl2. After 30 min incubation at 37 °C, 0.5 mL of 2.8% trichloroacetic acid solution and 0.5 mL of 0.5% thiobarbituric acid solution were added, following a second incubation at 100 °C for 20 min. Centrifugation at 3000 rpm for 20 min at 4 °C was performed, and we determined the absorbance value of the supernatant at 532 nm via Shimadzu UV-1601 UV-VIS spectrophotometer.

[6] = O-phenanthroline Fe(II) chelation test; format: physicochemical; conditions: 200 µM compound, FeCl2
Description: The Fe (II)-chelating activity of the tested hydrazones was determined by the O-phenanthroline method. A total of 1 mL sample solutions of 50 mM PB pH 7 contained 0.2 mM O-phenanthroline and 0.05 mM FeCl2 and 0.2 mM hydrazone. In the controls, the tested compounds were omitted. Absorbance was measured at 515 nm via GENESYS 50 UV-VIS spectrophotometer after incubation for 5 min at 37 °C. The data for the sample activity were presented as a percentage of the control measurement. Absorbance spectra of all the samples, the control, and the measurement compositions containing the tested hydrazones and Fe(II) at the concentrations used in the samples were measured.
To explain the results of both systems of Fe(II)-induced oxidative damage, we studied the potency of the tested compounds to chelate-iron (Fe(II)). This was studied by spectrophotometric determination of free iron (Fe(II)) using the ortho-phenanthroline test, as 1,10-phenantroline reacts rapidly with Fe(II) ions in weakly acidic media, generating an orange–red complex (ferroin) with characteristic absorbance spectra (molar absorptivity 1.10.104 (α = 0.20) at ~max 512 nm and a molar ratio 3:1 (R: Fe(II))). The generated complex was stable, and the bound Fe(II) was resistant to oxidation. Lower absorbance of the reaction mixture indicated higher Fe^2+-chelating activity.

[7] = Superoxide radical scavenging, xanthine/xanthine oxidase/NBT system; format: biochemical
Description: The 1 mL cuvette for the control contained 1 mM xanthine, 20 µL xanthine oxidase (100 IU/L), and 0.04 mM NBT [43, 44]. In the sample compositions, the tested hydrazones at different concentrations were added. All measurement compositions were incubated at 37 °C, and the absorbance was determined spectrophotometrically at 560 nm via Shimadzu UV-1601 UV-vis spectrophotometer.
The potential capability of the investigated compounds to prevent the superoxide-anion radical-induced NBT reduction was investigated spectrophotometrically by xanthine-oxidase assay. The assay was carried out at the final concentration of the tested compounds, at 1, 10, 50, and 100 µM.

[8] = biological target: T1, recombinant human MAO-B (hMAO-B) (Homo sapiens, UniProt P27338); test: hMAO-B enzyme activity inhibition (Amplex Red fluorimetric assay); format: biochemical; conditions: 1 µM
T1 sequence (P27338 1-520): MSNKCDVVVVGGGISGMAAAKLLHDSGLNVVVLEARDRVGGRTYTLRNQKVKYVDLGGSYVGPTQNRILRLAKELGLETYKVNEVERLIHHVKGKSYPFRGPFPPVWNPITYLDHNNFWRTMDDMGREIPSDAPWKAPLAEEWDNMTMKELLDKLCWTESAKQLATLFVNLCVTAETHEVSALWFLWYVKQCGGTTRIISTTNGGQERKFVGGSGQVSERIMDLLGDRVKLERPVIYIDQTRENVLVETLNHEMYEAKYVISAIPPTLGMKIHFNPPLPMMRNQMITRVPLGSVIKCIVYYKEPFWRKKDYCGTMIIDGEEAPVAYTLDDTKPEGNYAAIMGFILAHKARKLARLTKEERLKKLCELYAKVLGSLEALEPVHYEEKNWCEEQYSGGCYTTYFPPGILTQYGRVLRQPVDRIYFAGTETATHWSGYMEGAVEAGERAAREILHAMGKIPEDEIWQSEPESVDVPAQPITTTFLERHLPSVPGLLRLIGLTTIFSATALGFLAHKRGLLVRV
Description: Amplex® UltraRed reagent [48] was used for detection of the hydrogen peroxide and peroxidase activity in biological samples and enzymes. In the presence of peroxidase, a red phosphorescent oxidation product, resorufin, was produced due to the 1:1 stoichiometric reaction of Amplex® Red with hydrogen peroxide. The analysis was conducted spectrophotometrically based on the high extinction coefficient of the color product. Using this method, small amounts of hydrogen peroxide (of the order of 10 pM in a volume of 100 µL) could be detected.
The following controls were used: pure MAO-B working solution in reaction buffer, MAO-B working solution containing hydrogen peroxide, and pure reaction buffer. The final concentration of the substances was 1 µM. […] At the end of the incubation period, the reaction was started by adding a 50 µL of a mix solution containing solutions of Amplex® Red reagent, horseradish peroxidase (HRP), and tyramine as a substrate for the enzyme in a reaction buffer, to each well on the 96-well plate.

red blood cells = test: Red blood cell hemolysis assay; format: cell-based, rat; conditions: positive control, 20% Triton X-100, 1 h, 37 °C
Description: The potential of the test compounds to induce hemolysis was evaluated following the protocol described by Evans et al.. The blood was collected from the heart of male Wister rats. The red blood cells were separated from the blood by repeated centrifugation in 0.9% NaCl buffer and were resuspended in phosphate-buffered saline (PBS, pH 7.4). The test compounds in concentrations 10, 100, and 200 µM, a negative control (distilled water), and a positive control (20% Triton X-100) were pipetted into 96-well plates. Then, the erythrocyte suspension in PBS was added, and the plates were incubated for 1 h at 37 °C. After centrifugation (5 min at 500× g), the supernatant was transferred to new 96-well plates in order to measure hemoglobin absorbance at 430 nm on a Synergy 2 plate-reader (BioTek Instruments, Inc., Highland Park, Winooski, VT, USA). The obtained results were presented as a percentage of hemolysis relative to the hemoglobin absorbance values in the positive controls. Hemoglobin absorbance of negative controls was accepted as zero hemolysis. […]
Hemolysis assay, using red blood cells, is an essential part of the in vitro biocompatibility testing of new drug substances; and it was used as a screening method for the evaluation of potential in vivo toxicity. The release of hemoglobin was a definite sign of the cell lysis of the erythrocytes and could be measured spectrophotometrically. […]

[9] = MTT cell viability assay (cytotoxicity), bEnd3; format: cell-based, mouse; conditions: mouse, bEnd3 brain endothelial cells, 1–500 µM
Description: Mouse-brain endothelial cell line bEnd3 [36] (CRL-2299) was purchased from the American Type Culture Collection (ATCC, Manassas, VA, USA). The cells were cultured in DMEM (Dulbeco’s modified essential medium) (cat. no. 30-2002, ATCC, Manassas, VA, USA), supplemented with 10% heat-inactivated FBS (cat. no. F7524, Sigma-Aldrich Co. LLC, St. Louis, MO, USA), 1 mM L-glutamine (cat. no. G7513, Sigma-Aldrich Co. LLC, St. Louis, MO, USA) and 1× Antibiotic-Antimycotic solution (penicillin: streptomycin: amphotericin B (100 U/mL: 0.10 mg/mL: 0.25 µg/mL) (cat. no. A5955, Sigma-Aldrich Co. LLC, St. Louis, MO, USA) at 37 °C in a humidified atmosphere containing 5% CO2. The cells were passaged in 75 cm^2 flasks every 3–5 days via trypsinization (StableCell Trypsin solution, cat. no. T2610, Sigma-Aldrich Co. LLC, St. Louis, MO, USA).
as §1, §2

[10] = Fe(II)-induced deoxyribose degradation assay; format: biochemical; conditions: 80 µM, 2-deoxyribose 0.5 mM, 0.1 mM FeCl2; lower = stronger antioxidant
Description: as §4
The deoxyribose (0.5 mM) damage was induced by adding FeCl2 (0.1 mM). The measurement compositions were incubated at 37 °C for 30 min. The next step comprised adding 0.5 mL of 2.8% trichloroacetic acid and 0.5 mL of thiobarbituric acid. Then, the samples were heated in boiling water for 20 min, and their absorbance was estimated at 532 nm (characteristic band for the generated chromophore) via Shimadzu UV-1601 UV-vis spectrophotometer.

[11] = Stability by UV-vis measurements at different pH; format: physicochemical; conditions: 50 µM, pH 2, 4.5, 7.4 and 8.4, after 1, 2, 3 and 24 h
Description: The stability of the compounds was also considered a potential issue. Therefore, selected compounds (3a, 3d, 5d, and 5e at a concentration of 50 µM) were studied by UV-vis measurements under different pH conditions, including pH 2, 4.5, 7.4, and 8.4, to represent different physiological (gastric, intestinal, etc.) conditions.

Molecule | IC50 at 24 h [1] [µM] | reduction of synaptosomal viability (SV) vs. non-treated synaptosomes [2] [%] | viability at 10 µM [3] [%] | GSH level preserved, as compared to 6-OHDA [4] [%] | absorbance ratio sample/control (lipid peroxidation) [5] | absorbance at 515 nm compared to the controls (Fe(II) chelation) [6] | absorbance ratio (NBT reduction, % of control) ([7]; 1, 10, 50 and 100 µM) | reduction of hMAO-B enzyme activity vs. pure hMAO-B [8] [%] | hemolysis (red blood cells) [%] | IC50 at 24 h [9] [µM] | absorbance ratio, % of the controls (deoxyribose degradation) [10] | decrease of NBT reduction as compared to the controls ([7]; 100 µM (highest tested concentration)) | stability (UV-vis spectra over time) [11] | melting point [°C]
O=C(O)CCc1c[nH]c2ccccc12 [IPA, Indole-3-propionic acid] | > 500 | 47 | 56 | 50 | further amelioration of the antioxidant properties was not observed, as compared to melatonin | statistically identical absorbance values at 515 nm, as compared to the controls | did not influence the estimated absorbance ratio at any of the tested concentrations | 25 |  |  |  |  |  | 
Triton X-100 |  |  |  |  |  |  |  |  | 100 |  |  |  |  | 
O=C(CCc1c[nH]c2ccccc12)NN=Cc1cccc(O)c1O [Compound 3a, N′-(2,3-Dihydroxybenzylidene)-3-(1H-indol-3-yl)propanehydrazide] | 120 |  | 44 |  | around 30% | identical absorbance values, as compared to the controls |  |  |  | 356 | around 35% | less than 15% | stable over time | 204 to 205
